Test results from US5476848A, “14B(R) isomers of novel tetracyclic compounds having anti-allergic and anti-asthmatic activities, and their use” (Sankyo Company, Limited, priority 1989, dated 1995).
Structures can show the parent of a compound that is named as a salt.

Experiments:
pentobarbital anesthesia = assay: Prolongation of pentobarbital anesthesia (Test Example 3); assay type: in vivo, guinea pig (male Hartley); conditions: for AD (oral dose which prolonged the pentobarbital-induced anesthesia by 15%, AD15): 1 hr before pentobarbital 30 mg/kg s.c.
Excerpt: Sedation is the side effect with the highest incidence in histamine (H1)-blockers and anti-allergic drugs with an H1 blocking effect (Douglas, W. W. (1980) The Pharmacological Basis of Therapeutis, A. Goodman Gilman, L. S. Goodman, A. Gilman (eds), Macmillian, New York) and therefore anti-allergic drugs which overcome this disadvantage are needed. We investigated the effects of test compounds on pentobarbital anesthesia as a method for measuring incidence of sedation in animals.
Prolongation effects on anesthesia are usually investigated with ethanol or thiopental (in mice and rats). However, we investigated it with pentobarbital in guinea pigs because our data with pentobarbital corresponded well with the clinical data, that is, the incidence of sedation of other anti-allergic drugs in clinical use.
Sodium Pentobarbital (30 mg/kg) was subcutaneously injected into the backs of male Hartley guinea pigs weighing approximately 400 g, and the duration of postural reflex abolition was then measured.
Test compounds were administered orally 1 hr before the pentobarbital injection. The prolongation rate obtained with the test compound was calculated by comparison to the control (the duration of pentobarbital anesthesia in animals untreated with the test compounds). In addition, the AD15 value (the oral dose which prolonged the pentobarbital-induced anesthesia by 15%) was determined, and the results are shown in the table.

[1] = system: Antigen-induced Bronchoconstriction; assay: Effect on antigen-induced bronchoconstriction in sensitized guinea pigs (Test Example 2"); assay type: in vivo, guinea pig (male Hartley); conditions: Cavia porcellus, po, read-out: Inhibitory rate; for inhibition at 0.025 mg/kg: 0.025 mg/kg (Table 4"); for inhibition at 0.1 mg/kg: 0.1 mg/kg (Table 4")
Description: (§1) The test animals used were male guinea pigs of the Hartley strain (weighing about 400 to 500 g). These animals were sensitized according to Morris' method [H. R. Morris; Br. J. Pharmac., 67, 179-184 (1979)]. The guinea pigs were injected twice subcutaneously and intraperitoneally, each time with 25 mg of egg albumin (grade 5, Sigma) at weekly intervals. 7 days after the second of these weekly injections, the animals were fasted for one day and then exposed to an aerosol of egg albumin (10 mg/ml). All of the animals so exposed responded with convulsions, indicating respiratory distress due to airway constriction, within 6 minutes.
60 minutes before the egg albumin challenge, one of the test compounds shown in the following Table 4" was administered orally to each of the animals.

[2] = system: Passive Cutaneous Anaphylaxis (PCA); assay: Inhibitory effect on passive cutaneous anaphylaxis (PCA) in rats (Test Example 1"); assay type: in vivo, rat (male SD); conditions: Rattus norvegicus, po, read-out: Inhibitory rate; for inhibition at 0.05 mg/kg: 0.05 mg/kg (Table 3"); for inhibition at 0.2 mg/kg: 0.2 mg/kg (Table 3"); for inhibition at 3.1 mg/kg: 3.1 mg/kg (Table 3")
Description: Male SD rats (5 weeks old) were used as the test animals in groups, each containing 4 animals. The rats were sensitized by intradermal injection of 0.05 ml of the diluted antiserum solution in the dorsal position. […] 60 minutes later they were injected in the caudal vein with 5 ml/kg body weight of physiological saline containing 0.4% w/v of egg albumin and 1.0% w/v of Evans Blue.
(§2) The inhibitory rate was calculated by the following equation.
(§3) Inhibitory rate (%)=(1-B/A)×100
(§4) A: amount of exuded dye in the control group
(§5) B: amount of exuded dye in the test group.

eosinophil accumulation = assay: Inhibitory effect on antigen induced eosinophil accumulation (Test Example 4); assay type: in vivo, guinea pig (male Hartley); conditions: Cavia porcellus, Eosinophil, po, 1 hr before antigen challenge, BALF 24 hr after;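 further: oral dose 0.1 mg/kg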
Description: Male Hartley guinea pigs weighing approximately 400 g were sensitized with ovalbumin by the method described by Engineer et al. (Engineer, D. M. et al., J. Pharmacol., 62, 61-66 (1978)), and the number of eosinophils infiltrating into the bronchoalveolar space due to antigen challenge was examined.
Briefly, the animals were exposed to the antigen (ovalbumin) for 6 min. At 24 hr. after antigen challenge, the guinea pigs were anesthetized with pentobarbital (30 mg/kg, i.p.). The trachea was cannulated by a disposable intravenous catheter, and the airway lumen (especially in the right posterior lobe) was washed with 0.9% saline (10 ml/kg) kept at 37° C. The bronchoalveolar lavage fluid (BALF) from each animal was centrifuged (150 g for 10 min at 4° C.). After removing the supernatant, the cell pellet was resuspended in HBSS (Hank's balanced solution) and a total cell count was performed using a standard hemocytometer. Differential cell counts were done on smears fixed in methanol and stained with Wright-Giemsa solution, and by light microscopy under oil immersion (×1000). The proportion of eosinophil population was expressed as a percentage of total cells, and this ratio together with the total cell count was used to calculate the total number of eosinophils. The percent inhibition of the test compounds which was administered 1 hr before antigen challenge, was calculated as follows:
Percent inhibition=[1-(C-A)/(B-A)]×100
A: negative control: mean value of cell counts in BALF from the animals with inhaled saline
B: positive control: mean value of cell counts in BALF from the animals 24 h after antigen challenge
C: cell counts of BALF for the animals pretreated with a test compound 24 h after antigen challenge

eosinophil chemotaxis = assay: Inhibitory effect of eosinophil chemotaxis to zymosan-activated serum (Test Example 4); assay type: cell-based, guinea pig; conditions: Cavia porcellus, Eosinophil, 0.1 μg/ml; ZAS
Excerpt: Eosinophils were harvested from the peritoneal cavity of polymyxin B-treated guinea pigs (body weight, approx. 400 g) according to the method described by Pincus (Pincus, S. H. et al.: Blood, 52, 127-134 (1978)). The eosinophils were separated and purified by Ficoll-paque (Pharmacia) density gradient centrifugation. Then, the eosinophil chemotaxis to zymosan-activated serum (ZAS) was investigated by a modification of the Boyden micropore filter technique (Gosset, P. et al.: Clin. Exp. Immunol., 65, 654-663 (1986)). Briefly, the assay was carried out in a 48-well microchemotaxis assembly (Neuroprobe; Cabin John, Md., U.S.A.). Cell suspensions were adjusted to 2.5×10^5 /50 μl, and placed in the upper chamber separated from the chemoattractant (ZAS) solution in the lower chamber by a 3 μm pore size polycarbonate membrane filter (Nucleopore Co., Pleasanton, U.S.A.). The cells were incubated for 10 min at 37° C. with the test compounds, prior to their addition to the chemotaxis chamber. Migration was carried out at 37° C. in humidified air with 5% CO2 for 2 h. After the incubation, the migrated eosinophils in the lower Chamber were counted by a hemocytometer.
The percentage inhibition obtained with the test compound was calculated by comparison to the positive control (migration of non-treated cells in response to the ZAS), according to the formula:
Percent inhibition=[1-(A/B)]×100
A: (migration with a test compound)-(spontaneous migration)
B: (positive control migration)-(spontaneous migration)

[3] = system: Passive Cutaneous Anaphylaxis (PCA); assay: Inhibitory effect on passive cutaneous anaphylaxis (PCA) in rats (Test Example 1); assay type: in vivo, rat (male SD); conditions: Rattus norvegicus, po, read-out: Inhibitory rate
Description: Male SD rats (5 weeks old) were used as the test animals in groups, each containing 4 animals. The rats were sensitized by intradermal injection of 0.05 ml of the diluted antiserum solution in the dorsal position. 48 hours after this injection, a suspension of the test compound in an aqueous 0.5% w/v tragacanth solution was orally administered to the rats, fasted for one day, and 60 minutes later they were injected in the caudal vein with 5 ml/kg body weight of physiological saline containing 0.4% w/v egg albumin and 1.0% w/v Evans Blue.
as §2, §3, §4, §5

[4] = system: Antigen-induced Bronchoconstriction; assay: Effect on antigen-induced bronchoconstriction in sensitized guinea pigs (Test Example 2); assay type: in vivo, guinea pig (male Hartley); conditions: Cavia porcellus, po, 60 min before challenge, read-out: Inhibitory rate
Description: as §1, with “were” for “were injected twice”, “intraperitoneally injected twice,” for “intraperitoneally,”
60 minutes before the egg albumin challenge, one of the test compounds shown in the following Table 5 was administered orally to each of the animals.

Q: How did the “AD (oral dose which prolonged the pentobarbital-induced anesthesia by 15%, AD15)” value (pentobarbital anesthesia; po, guinea pigs) turn out when `O=C(O)CCCN1CCN2c3ccccc3Cc3ccccc3C2C1` (racemic) [Example 22, 4-(1,2,3,4,10,14b-Hexahydrodibenzo[c,f]pyrazino[1,2-a]azepin-2-yl)butanoic acid] was run?
A: The value was 59 mg/kg.

Q: How did the inhibition at 0.025 mg/kg [1] turn out when `O=C(O)CCCN1CCN2c3ccccc3Cn3cccc3[C@H]2C1` [3"] was run?
A: Its inhibition at 0.025 mg/kg is 60%.

Q: And the inhibition at 0.1 mg/kg [1]?
A: The inhibition at 0.1 mg/kg was 100%.

Q: And the inhibition at 0.05 mg/kg [2]?
A: The inhibition at 0.05 mg/kg was 66%.

Q: What about the inhibition at 0.2 mg/kg [2] of the same compound?
A: The inhibition at 0.2 mg/kg was 72%.

Q: `O=C(O)CCCN1CCN2c3ccccc3Cc3ccccc3[C@@H]2C1` [22 HCl R-isomer] was tested. Which inhibition at 0.1 mg/kg (eosinophil accumulation) did it give?
A: The inhibition at 0.1 mg/kg was 59%.

Q: And the inhibition at 0.1 µg/mL (eosinophil chemotaxis)?
A: Its inhibition at 0.1 µg/mL is 53%.

Q: And the inhibition at 0.025 mg/kg [1]?
A: The inhibition at 0.025 mg/kg was 40%.

Q: And the inhibition at 0.1 mg/kg [1]?
A: Its inhibition at 0.1 mg/kg is 80%.

Q: What about the inhibition at 0.4 mg/kg ([1]; 0.4 mg/kg (Table 4")) of the same compound?
A: The inhibition at 0.4 mg/kg was 100%.

Q: What about the inhibition at 0.05 mg/kg [2] of the same compound?
A: The inhibition at 0.05 mg/kg was 55%.

Q: What about the inhibition at 0.2 mg/kg [2] of the same compound?
A: Its inhibition at 0.2 mg/kg is 67%.

Q: Which results are given for `O=C(O)CCCN1CCN2c3ccccc3Cc3ccccc3[C@@H]2C1` [22 R-isomer]?
A: prolongation of anesthesia side effect (pentobarbital anesthesia; in words): extremely low; AD (oral dose which prolonged the pentobarbital-induced anesthesia by 15%, AD15) (pentobarbital anesthesia; po, guinea pigs): 123 mg/kg; amount of R-isomer required as compared with the racemate for the same prolongation time (pentobarbital anesthesia; ratio to racemate, po, guinea pigs): about double

Q: With `O=C(O)CCCN1CCN2c3ccccc3Cc3ccccc3[C@H]2C1` [22 S-isomer] as the compound, how does the “AD (oral dose which prolonged the pentobarbital-induced anesthesia by 15%, AD15)” value (pentobarbital anesthesia; po, guinea pigs) read?
A: Its value is 75 mg/kg.

Q: With `NC(=O)COCCN1CCN2c3ccccc3Cc3ccccc3C2C1` (centres unmarked) [Example 26, 2-(1,2,3,4,10,14b-Hexahydrodibenzo[c,f]pyrazino[1,2-a]azepin-2-yl)ethoxyacetamide] as the compound, how does the inhibition at 0.05 mg/kg [3] read?
A: The inhibition at 0.05 mg/kg was 44%.

Q: What about the inhibition at 0.2 mg/kg [3] of the same compound?
A: Its inhibition at 0.2 mg/kg is 63%.

Q: What about the inhibition at 0.4 mg/kg ([4]; 0.4 mg/kg) of the same compound?
A: Its inhibition at 0.4 mg/kg is 80%.

Q: For `O=C(O)COCCN1CCN2c3ccccc3Cc3ccccc3[C@H]2C1` [Example 59, (S)-2-(1,2,3,4,10,14b-Hexahydrodibenzo[c,f]pyrazino[1,2-a]azepin-2-yl)ethoxyacetic Acid], which inhibition at 0.05 mg/kg [3] is on record?
A: The inhibition at 0.05 mg/kg was 59%.

Q: And the inhibition at 0.2 mg/kg [3]?
A: Its inhibition at 0.2 mg/kg is 74%.

Q: And the inhibition at 0.05 mg/kg ([4]; 0.05 mg/kg)?
A: The inhibition at 0.05 mg/kg was 60%.

Q: Which inhibition at 0.05 mg/kg [3] does the source give for `O=C(O)COCCN1CCN2c3ccccc3Cc3ccccc3[C@@H]2C1` [Example 65, (R)-2-(1,2,3,4,10,14b-hexahydrodibenzo[c,f]pyrazino[1,2-a]azepin-2-yl)ethoxyacetic acid monohydrate] here?
A: Its inhibition at 0.05 mg/kg is 45%.

Q: And the inhibition at 0.4 mg/kg ([3]; 0.4 mg/kg)?
A: The inhibition at 0.4 mg/kg was 58%.

Q: And the inhibition at 0.1 mg/kg ([4]; 0.1 mg/kg)?
A: Its inhibition at 0.1 mg/kg is 60%.

Q: Which inhibition at 3.1 mg/kg [3] does the source give for `OCCN1CCN2c3ccccc3Cn3cccc3C2C1` (centres unmarked) [Prior art compound D, 2-(2-hydroxyethyl)-1,3,4,14b-tetrahydro-2H, 10H-pyrazino[1,2-a]pyrrolo[2,1-c][1,4]benzodiazepine, reference compound] here?
A: Its inhibition at 3.1 mg/kg is 30%.

Q: What about the inhibition at 3.1 mg/kg [2] of the same compound?
A: Its inhibition at 3.1 mg/kg is 30%.

Q: What does the source list for `NC(=O)CCN1CCN2c3ccccc3Cc3ccccc3C2C1` (centres unmarked) [Prior art compound F, 2-(2-carboxamidoethyl)-1,2,3,4,10,14b-hexahydrodibenzo[c,f]pyrazino[1,2-a]azepine, reference compound]?
A: inhibition at 3.1 mg/kg [3]: 52%; inhibition at 3.1 mg/kg [2]: 52%
